Measurements: ChEMBL document CHEMBL5357063, “Lysophosphatidylcholines Enriched with cis and trans Palmitoleic Acid Regulate Insulin Secretion via GPR119 Receptor” (ACS Med Chem Lett, 2024)
Calls of active or inactive are those of the source. The calls are words filed in the database; no cut-off is given here.

What was measured:
[1] = Induction of cAMP production in human EndoC-betaH1 cells at 5 uM measured per mg of protein in presence of GPR119 antagonist by ELISA method; format: functional
EndoC-betaH1 [2] = test: Induction of insulin secretion in human EndoC-betaH1 cells at 5 uM incubated for 1 hr by ELISA method; format: functional, cell-based
EndoC-betaH1 [3] = test: Induction of glucose stimulated insulin secretion in human EndoC-betaH1 cells transfected with siRNA measured after 48 hrs in presence of GPR119 antagonist by ELISA method; format: functional, cell-based
EndoC-betaH1 [4] = test: Cytotoxicity against human EndoC-betaH1 cells assessed as reduction in cell viability at 10 to 1000 uM measured after 24 to 72 hrs by PrestoBlue cell viability assay; format: toxicity, cell-based; settings: endoc-betah1, 1000 µM, dose lower 10 µM, time lower 24 hrs, dose upper 1000 µM, time upper 72 hrs
EndoC-betaH1 [5] = test: Induction of glucose stimulated insulin secretion in human EndoC-betaH1 cells at 5 uM incubated for 1 hr in presence of GPR40 antagonist by ELISA method; format: functional, cell-based
EndoC-betaH1 [6] = test: Effect on intracellular calcium mobilization in human EndoC-betaH1 cells at 5 uM measured after 3 mins; format: functional, cell-based
EndoC-betaH1 [7] = test: Induction of cAMP production in human EndoC-betaH1 cells at 5 uM in presence of GPR120 antagonist by ELISA method; format: functional, cell-based
EndoC-betaH1 [8] = test: Induction of glucose stimulated insulin secretion in human EndoC-betaH1 cells at 5 uM incubated for 1 hr in presence of GPR119 antagonist by ELISA method (reference value: 1.97 fmol/microg); format: functional
EndoC-betaH1 [9] = test: Induction of cAMP production in human EndoC-betaH1 cells at 5 uM in presence of GPR40 antagonist by ELISA method; format: functional, cell-based
EndoC-betaH1 [10] = test: Induction of glucose stimulated insulin secretion in human EndoC-betaH1 cells at 5 uM incubated for 1 hr in presence of GPR55 antagonist by ELISA method; format: functional, cell-based
EndoC-betaH1 [11] = test: Induction of glucose stimulated insulin secretion in human EndoC-betaH1 cells at 5 uM incubated for 1 hr in presence of GPR120 antagonist by ELISA method; format: functional, cell-based
EndoC-betaH1 [12] = test: Cytotoxicity against human EndoC-betaH1 cells assessed as reduction in cell viability at 1 uM measured after 24 to 72 hrs by PrestoBlue cell viability assay; format: toxicity, cell-based; settings: endoc-betah1, 1 µM, time 24-72 hrs
Cell membrane = test: Induction of cell membrane permeabilization in human EndoC-betaH1 cells at 10 uM measured upto 3.5 mins propidium iodide staining based fluorescence analysis; format: subcellular
EndoC-betaH1 [13] = test: Cytotoxicity against human EndoC-betaH1 cells assessed as reduction in cell viability at 5 uM measured after 48 to 72 hrs by PrestoBlue cell viability assay; format: toxicity, cell-based; settings: endoc-betah1, 5 µM, time 48-72 hrs
EndoC-betaH1 [14] = test: Induction of glucose stimulated insulin secretion in human EndoC-betaH1 cells at 100 nM incubated for 1 hr in presence of GPR119 antagonist by ELISA method; format: functional, cell-based
EndoC-betaH1 [15] = test: Cytotoxicity against human EndoC-betaH1 cells assessed as reduction in cell viability at 10 uM measured after 24 to 72 hrs by PrestoBlue cell viability assay; format: toxicity, cell-based; settings: endoc-betah1, 10 µM, time 24-72 hrs
EndoC-betaH1 [16] = test: Induction of cAMP production in human EndoC-betaH1 cells at 5 uM in presence of GPR55 antagonist by ELISA method; format: functional, cell-based
[17] = Induction of cAMP production in human EndoC-betaH1 cells at 5 uM by ELISA method; format: functional
EndoC-betaH1 [18] = test: Induction of glucose stimulated insulin secretion in human EndoC-betaH1 cells at 1 uM incubated for 1 hr in presence of GPR119 antagonist by ELISA method; format: functional, cell-based
EndoC-betaH1 [19] = test: Induction of glucose stimulated insulin secretion in human EndoC-betaH1 cells at 5 uM incubated for 1 hr in presence of GPR119 antagonist by ELISA method (reference value: 2.03 fmol/microg); format: functional
EndoC-betaH1 [20] = test: Induction of glucose stimulated insulin secretion in human EndoC-betaH1 cells at 5 uM incubated for 1 hr in presence of GPR119 antagonist by ELISA method; format: functional, cell-based
EndoC-betaH1 [21] = test: Induction of cAMP production in human EndoC-betaH1 cells at 5 uM in presence of GPR119 antagonist by ELISA method; format: functional, cell-based

With `CCCCCC/C=C/CCCCCCCC(=O)OC[C@@H](O)COP(=O)([O-])OCC[N+](C)(C)C` the Activity [1] was 0.65 pmol, the Activity (EndoC-betaH1 [2]) was “Active” and the Activity (EndoC-betaH1 [3]) was “inactive”. The Activity (EndoC-betaH1 [4]) was “Toxic”, the Activity (EndoC-betaH1 [5]) was “Active” and the Activity (EndoC-betaH1 [6]) was “inactive”. For the same compound, the Activity (EndoC-betaH1 [7]) was “Active”, the Activity (EndoC-betaH1 [8]) was 1.34 fmol/µg and the Activity (EndoC-betaH1 [9]) was “Active”. For the same compound, the Activity (EndoC-betaH1 [10]) was “Active”, the Activity (EndoC-betaH1 [11]) was “Active” and the Activity (EndoC-betaH1 [12]) was “Non-Toxic”. For the same compound, the Activity (Cell membrane) was “inactive” and the Activity (EndoC-betaH1 [13]) was “Toxic”.

In the case of `CC(C)c1noc(C2CCN(c3ncnc(Nc4ccc(S(C)(=O)=O)cc4F)c3[N+](=O)[O-])CC2)n1`, the Activity (EndoC-betaH1 [14]) is reported as “Active”.

With `CCCCCC/C=C\CCCCCCCC(=O)OC[C@@H](O)COP(=O)([O-])OCC[N+](C)(C)C` the Activity [1] was 0.8 pmol, the Activity (EndoC-betaH1 [2]) was “Active” and the Activity (EndoC-betaH1 [3]) was “inactive”. The Activity (EndoC-betaH1 [5]) was “Active”, the Activity (EndoC-betaH1 [6]) was “inactive” and the Activity (EndoC-betaH1 [15]) was “Non-Toxic”. The Activity (EndoC-betaH1 [7]) was “Active”, the Activity (EndoC-betaH1 [16]) was “inactive” and the Activity [17] was 1.87 pg/µg. The Activity (EndoC-betaH1 [18]) was “Active”, the Activity (EndoC-betaH1 [9]) was “Active” and the Activity (EndoC-betaH1 [10]) was “Active”. For the same compound, the Activity (EndoC-betaH1 [11]) was “Active”, the Activity (EndoC-betaH1 [19]) was 1.47 fmol/µg and the Activity (Cell membrane) was “inactive”.

In the case of `CCCCCCCCCCCCCCCC(=O)OC[C@@H](O)COP(=O)([O-])OCC[N+](C)(C)C`, the Activity (EndoC-betaH1 [2]) is reported as “Active”, the Activity (EndoC-betaH1 [5]) is reported as “Active” and the Activity (EndoC-betaH1 [20]) is reported as “inactive”. For the same compound, the Activity (EndoC-betaH1 [6]) was “inactive”, the Activity (EndoC-betaH1 [7]) was “Active” and the Activity (EndoC-betaH1 [16]) was “Active”. The Activity (EndoC-betaH1 [9]) was “Active”, the Activity (EndoC-betaH1 [10]) was “Active” and the Activity (EndoC-betaH1 [11]) was “Active”. For the same compound, the Activity (Cell membrane) was “inactive” and the Activity (EndoC-betaH1 [21]) was “Active”.
